Laboratory results as given in patent US9206165B2, “Tetrazolo hydrazine derivatives and pharmaceutical composition comprising same as active ingredient for preventing or treating cancer” (INDUSTRY-ACADEMIC COOPERATION FOUNDATION, YEUNGNAM …, priority 2012, dated 2015).

Experiments:
[1] = system: MCF-7, MDA-Mb-231 and Zr-75 cell lines; assay: In vitro anti-cancer activity in human breast cancer cell lines, MTT (statements pooled over the three lines); format: cell-based; settings: 1×10^−5, 1×10^−6 and 1×10^−7 M, 48 h
Description: (§1) Anti-cancer activities of the compounds f1-f15 on human breast cancer cell line were tested in ER positive (MCF-7) and […] cell lines. The human breast cancer cell lines MCF-7 and MDA-MB-231 were cultured in Dulbecco's Modified Eagle's Medium (DMEM) supplemented with 10% fetal bovine serum (FBS) (HyClone Laboratories, Logan, Utah, USA) and 1% penicillin: streptomycin (Invitrogen, Carlsbad, Calif., USA) in 12 well plates. The test compounds f1-f15 were dissolved in DMSO and one microliter of the stock solution was used per milliliter of the culture to make a working concentration1 1×10^−5, 1×10^−6 and 1×10^−7 M. Each test includes control wells. The cell suspension was diluted to 1×10^4 cells/mL by adding fresh medium, and 1 mL of this suspension was added to the test and control wells. The plates were incubated at 37° C. under CO2 for 24 h. After incubation, the culture media was changed and cells were treated with […] of stock solution. Cells were incubated at 37° C. under CO2 for 48 h. The growth of the cells was checked with a low power microscope and MTT assay was used to confirm the viability. In the similar experiments, the ZR-75 cells were grown in RPMI 1640 (HyClone Laboratories, Logan, Utah, USA) supplemented with 10% fetal bovine serum (FBS) (HyClone Laboratories, Logan, Utah, USA) and 1% penicillin: streptomycin (Invitrogen, Carlsbad, Calif., USA).
(§2) The results for each compound are reported as percent growth (GP %) of treated cells compared to untreated controls. The inhibitory effects were detectable in compounds 2, 8, 10, 12 and 14 among the compounds f1-f15. […] The percent growth inhibition of compounds varied not only with the substituent groups but also with the nature of the cell line.

[2] = system: breast cancer marker genes in MCF-7 cells; assay: Gene expression analysis by real time RT-PCR in MCF-7 cells; format: cell-based, human; settings: mRNA
Description: (§3) To investigate the various effects of various cell lines, the expression levels of different breast cancer marker genes were tested after treating the compounds.
(§4) Total RNA was extracted from the cells using Trizol™ reagent, stored in diethylpyrocarbonate-treated water at −80° C. until use. Total 2 μg of RNA was used for cDNA synthesis. All the primer used in examples of the present invention were designed with Primer 3 software (http://frodo.wi.mit.edu) using sequence information listed at NCBI. Following conditions were applied for the RT-PCR: pre-denaturation of the synthesized cDNA at 95° C. for 10 min followed by 40 cycles of denaturation at 95° C. for 33 s, annealing at each gene-specific primer Tm (° C.), and extension at 72° C. for 33 s. 1.2% of the agarose gel electrophoresis were used to verify the purity of the amplified genes.

[3] = system: breast cancer marker genes in MDA-MB-231 cells; assay: Gene expression analysis by real time RT-PCR in MDA-MB-231 cells; format: cell-based, human; settings: mRNA
Description: as §3, §4

MCF-7 cells = assay: In vitro anti-cancer activity, MTT, MCF-7; format: cell-based, human; settings: ER positive MCF-7; FIG. 2
Description: as §1, §2

MDA-MB-231 cell line = assay: In vitro anti-cancer activity, MTT, MDA-MB-231; format: cell-based, human; settings: ER negative MDA-MB-231; FIG. 2
Description: as §1, with “In the similar experiments, the ZR-75 cells were grown in RPMI 1640 (HyClone Laboratories, Logan, Utah, USA) supplemented with 10% fetal bovine serum (FBS) (HyClone Laboratories, Logan, Utah, USA) and 1% penicillin: streptomycin (Invitrogen, Carlsbad, Calif., USA).” left out

ZR-75 cell line = assay: In vitro anti-cancer activity, MTT, ZR-75; format: cell-based, human; settings: ER negative ZR-75; FIG. 2
Description: as §1, with “In the similar experiments, the ZR-75 cells were grown in RPMI 1640 (HyClone Laboratories, Logan, Utah, USA) supplemented with 10% fetal bovine serum (FBS) (HyClone Laboratories, Logan, Utah, USA) and 1% penicillin: streptomycin (Invitrogen, Carlsbad, Calif., USA).” left out

Compound	melting point [°C]	anti-proliferative activity / inhibitory effects ([1]; FIG. 2)	expression of BAX ([2]; FIG. 3)	expression of CD44 ([2]; FIG. 3)	expression of BRAC-1 ([3]; FIG. 4)	further results
COc1ccc(C=NNC(=O)Cn2nnnc2-c2ccc3c(c2)OCO3)cc1 [f4, 2-[5-(1,3-benzodioxol-5-yl)-1H-tetrazol-1-yl]-N′-[(4-methoxyphenyl)methylidene]acetohydrazide]	198 to 200					
O=C(Cn1nnnc1-c1ccc2c(c1)OCO2)NN=Cc1ccc(Cl)cc1 [f1, 2-[5-(1,3-benzodioxol-5-yl)-1H-tetrazol-1-yl]-N′-[4-chlorophenyl-methylidene]acetohydrazide]	206 to 208					
CCOc1ccccc1C=NNC(=O)Cn1nnnc1-c1ccc2c(c1)OCO2 [f7, 2-[5-(1,3-benzodioxol-5-yl)-1H-tetrazol-1-yl]-N′-[(2-ethoxyphenyl)methylidene]acetohydrazide]	196 to 198					
O=C(Cn1nnnc1-c1ccc2c(c1)OCO2)NN=Cc1ccccc1Cl [f2, 2-[5-(1,3-benzodioxol-5-yl)-1H-tetrazol-1-yl]-N′-[(2-chlorophenyl)methylidene]acetohydrazide]	198 to 200	excellent anti-proliferative activity	increased more than two fold	increased	a minimum of two folds decrease	anti-proliferative activity / inhibitory effects ([1]; FIG. 2, listed as 2): detectable
O=C(Cn1nnnc1-c1ccc2c(c1)OCO2)N/N=C/c1ccc([N+](=O)[O-])cc1 [f14, 2-[5-(1,3-benzodioxol-5-yl)-1H-tetrazol-1-yl]-N′-[(E)-(4-nitrophenyl)methylidene]acetohydrazide]	204 to 206	excellent anti-proliferative activity	increased more than two fold	increased	a minimum of two folds decrease	anti-proliferative activity / inhibitory effects ([1]; FIG. 2, listed as 14): detectable; anti-proliferative effects on MCF-7 cells growth (MCF-7 cells): more anti-proliferative effects
O=C(Cn1nnnc1-c1ccc2c(c1)OCO2)NN=Cc1ccco1 [f13, 2-[5-(1,3-benzodioxol-5-yl)-1H-tetrazol-1-yl]-N′-[furan-2-ylmethylidene]acetohydrazide]	212 to 214					
O=C(Cn1nnnc1-c1ccc2c(c1)OCO2)NN=Cc1cccc([N+](=O)[O-])c1 [f12, 2-[5-(1,3-benzodioxol-5-yl)-1H-tetrazol-1yl]-N′-[(3-nitrophenyl)methylidene]acetohydrazide]	208 to 210	excellent anti-proliferative activity	increased more than two fold	increased	a minimum of two folds decrease	anti-proliferative activity / inhibitory effects ([1]; FIG. 2, listed as 12): detectable; anti-proliferative effects on MCF-7 cells growth (MCF-7 cells): more anti-proliferative effects
O=C(Cn1nnnc1-c1ccc2c(c1)OCO2)NN=Cc1ccccc1 [f5, 2-[5-(1,3-benzodioxol-5-yl)-1H-tetrazol-1yl]-N′-[phenylmethylidene]acetohydrazide]	204 to 206					
CCc1ccc(C=NNC(=O)Cn2nnnc2-c2ccc3c(c2)OCO3)cc1 [f11, 2-[5-(1,3-benzodioxol-5-yl)-1H-tetrazol-1-yl]-N′-[(4-ethylphenyl)methylidene]acetohydrazide]	200 to 202					
CCOc1ccc(C=NNC(=O)Cn2nnnc2-c2ccc3c(c2)OCO3)cc1 [f3, 2-[5-(1,3-benzodioxol-5-yl)-1H-tetrazol-1-yl]-N′-[(4-ethoxyphenyl)methylidene]acetohydrazide]	208 to 210					
COc1ccc(C=NNC(=O)Cn2nnnc2-c2ccc3c(c2)OCO3)cc1OC [f8, 2-[5-(1,3-benzodioxol-5-yl)-1H-tetrazol-1-yl]-N′-[(3,4-dimethoxyphenyl)methylidene]acetohydrazide]	200 to 202	excellent anti-proliferative activity	increased more than two fold	increased	a minimum of two folds decrease	anti-proliferative activity / inhibitory effects ([1]; FIG. 2, listed as 8): detectable; anti-proliferative effects in MDA-MB-231 (MDA-MB-231 cell line): more anti-proliferative effects; anti-proliferative effects in ZR-75 (ZR-75 cell line): more anti-proliferative effects; expression of CD44 ([2]; FIG. 3, listed as 8): increased about two fold; expression of BRAC-1 ([3]; FIG. 4, listed as 8): highly suppressed
O=C(Cn1nnnc1-c1ccc2c(c1)OCO2)NN=Cc1ccccc1[N+](=O)[O-] [f10, 2-[5-(1,3-benzodioxol-5-yl)-1H-tetrazol-1yl]-N′-[(2-nitrophenyl)methylidene]acetohydrazide]	210 to 212	excellent anti-proliferative activity	increased more than two fold	increased	a minimum of two folds decrease	anti-proliferative activity / inhibitory effects ([1]; FIG. 2, listed as 10): detectable; anti-proliferative effects on MCF-7 cells growth (MCF-7 cells): more anti-proliferative effects; expression of CD44 ([2]; FIG. 3, listed as 10): increased about two fold
Cc1ccc(C=NNC(=O)Cn2nnnc2-c2ccc3c(c2)OCO3)cc1 [f6, 2-[5-(1,3-benzodioxol-5-yl)-1H-tetrazol-1-yl]-N′-[(4-methylphenyl)methylidene]acetohydrazide]	203 to 205					
